Measured values published in patent US20160199434A1, “COMPOSITIONS AND METHODS FOR MODULATING DNA METHYLATION” (OHIO STATE INNOVATION FOUNDATION, priority 2013, published 2016).
Entries after “also recorded” stand apart in the source; their conditions may differ.

Columns and labels:
[1] = system: MDA-MB-231 human breast cancer cells; test: RNAseq of microRNAs and snoRNAs in MDA-MB-231 cancer cells; assay type: cell-based; conditions: MDA-MB-231 cells, compared to DMSO-treated cells
Experimental: The expression of various microRNAs and snoRNAs was evaluated following administration of AKB-6899 to MDA-MB-231 human breast cancer cells. In these cancer cells, AKB-6899 increased expression of several microRNAs, some of which target methylation regulators such as the DNMTs. AKB-6899 also regulated about 20 snoRNAs, some of which are known to guide methylation. Finally, the analysis identified over sixty (60) RNA transcripts in the AKB-6899 treated cancer cells, which transcriptions are yet to annotated. The AKB-6899 treated breast cancer cells were compared to DMSO-treated cancer cells.

DNMT-3a = DNMT-3a mRNA expression in lungs of normal mice after systemic administration; assay type: in vivo, mouse; conditions: i.p. 17.5 mg/kg three times per week for three weeks, vs DMSO
Experimental: FIGS. 14A-14C show the effects of systemic administration of AKB-6899. Mice were treated three times per week for three weeks with either i.p. AKB-6899 or i.p. DMSO. The lungs were removed and assayed to determine DNMT mRNA expression, percent CpG methylation, and fold change in mRNA. […] The data was standardized to 1.0 by the DMSO levels of the respective gene expression, (n=4 lungs per condition).

[2] = system: desmoplakin (DSP) gene promoter; test: Methylation of DSP promoter in C8161.9 melanoma cells; assay type: cell-based, human
Experimental: FIGS. 3A-3E show the effect of AKB-6899 (25 μM) on methylation of the desmoplakin (DSP) gene promoter in PyMT breast cancer cells (3A), human MDA-MB-231 triple negative breast cancer cells (3B), human C8161.9 melanoma cells (3C), and human MCF-7 breast cancer cells (3D). In FIG. 3A, the DSP promoter was 100% unmethylated (AKB-6899) vs. 99.99% methylated (vehicle). In FIG. 3B, the DSP promoter was 99.62% unmethylated (AKB-6899) v. 99.89% (vehicle). In FIG. 3C, the DSP promoter was 99.90% unmethylated (AKB-6899) v. 42.04% (vehicle). In FIG. 3D, the DSP promoter was 92.48% unmethylated (AKB-6899) v. 98.48% (vehicle). In FIG. 3E, when compared to the vehicle (DMSO), treatment of PyMT cells with AKB-6899 increased DSP expression.
(§1) The gene expression signatures from the tumors of PyMT breast tumor-bearing mice that were treated with either vehicle or AKB-6899 were evaluated. […] Methylation-specific PCR on the desmoplakin promoter was performed. The level of hypomethylation was near complete.

[3] = system: 23 different gene promoters; test: Percent methylation of 23 gene promoters in H1703 squamous cell carcinoma; assay type: cell-based, human; conditions: H1703, 10 μM and 50 μM, compared to DMSO
Experimental: (§2) FIGS. 11A-11D show the percent methylation for 23 different gene promoters in two types of human lung cancer cells—FIGS. 11A and 11B are directed at H1703 squamous cell carcinoma and FIG. 11C and FIG. 11D are directed at A549 adenocarcinoma. DMSO was used as a vehicle and was used as a control. […] The Dec/PBA condition represents a combination of 5 μM Decitabine (5-aza-2′deoxycytidine (5-AZA), which is a demethylating agent) and 2 mM […] (PBA, HDAC inhibitor). In all promoters tested, and in both types of lung cancer, AKB-6899 demethylated the gene promoters such that the level of % DNA methylation following AKB-6899 treatment was below the level of % DNA methylation of the DMSO-treated control cells (DMSO).

A549 adenocarcinoma = test: XTT cell survival assay, A549 lung cancer cells; assay type: cell-based, human; conditions: A549, increasing doses (FIG. 13B)
From the text: FIGS. 13A-13B show XTT cell survival assays for normal lung epithelial cells (BEAS-2B) and lung cancer cells (H1703 squamous cell carcinoma and A549 adenocarcinoma) in response to increasing doses of AKB-6899.

[4] = system: human A375 melanoma cells; test: Tumor growth of human A375 melanoma cells implanted in SCID mice; assay type: in vivo, mouse; conditions: 19 days after palpable tumor formation, AKB-6899 17.5 mg/kg, Docetaxel 30 mg/kg
Experimental: During treatment, tumor growth was determined. Animals were treated with one the following combinations: vehicle/vehicle, vehicle/AKB-6899 (17.5 mg/kg), Docetaxel (30 mg/kg)/vehicle, or Docetaxel/AKB-6899. 19 days after palpable tumor formation, the tumors in the mice receiving the vehicle/AKB-6899 combination had tumors that were 74% the size of control; the tumors in the mice receiving Docetaxel/vehicle combination had tumors that were 49% the size of control; and the tumors in the mice receiving the Docetaxel/AKB-6899 combination had tumors that were 13% the size of control.

[5] = system: 23 different gene promoters; test: Percent methylation of 23 gene promoters in A549 adenocarcinoma; assay type: cell-based, human; conditions: A549, 10 μM and 50 μM, compared to DMSO
Experimental: as §2

desmoplakin protein = test: Desmoplakin protein expression in cultured PyMT tumor cells; assay type: cell-based, mouse; conditions: 10 μM, 24 hours (FIG. 5A)
Experimental: FIGS. 5A-5B show desmoplakin protein expression following AKB-6899 treatment. In FIG. 5A, cultured PyMT tumor cells were treated for 24 hours with DMSO or AKB-6899 (10 μM). AKB-6899 increased desmoplakin protein expression.
as §1

DNMT-1 = DNMT-1 transcription in H1703 lung cancer cells; assay type: cell-based, human; conditions: H1703 cells in vitro, dose-dependent (FIG. 10A)
From the text: In FIG. 10A, AKB-6899 inhibited DNMT-1, DNMT-3a, and DNMT-3b transcription in a dose-dependent manner in human squamous cell carcinoma lung cancer cells (H1703), in vitro. The DMSO-treated DNMT mRNAs are over 1.0, meaning the level of expression is higher than the housekeeping control gene, CAP1. In FIG. 10B, AKB-6899 inhibited DNMT-3a and DNMT-3b transcription in human adenocarcinoma lung cancer cells (A549). The DMSO-treated DNMT mRNAs are under 1.0, meaning the level of expression is lower than the housekeeping control gene, CAP1.

In the case of `O=C(O)CNC(=O)c1ncc(-c2cccc(F)c2)cc1O` [AKB-6899, {[5-(3-Fluorophenyl)-3-hydroxypyridine-2-carbonyl]amino}acetic acid], the “expression of microRNAs” value [1] is reported as “increased”, the “DNMT-3a expression in lungs” value (DNMT-3a) is reported as “inhibited” and the DSP promoter unmethylated ([2]; C8161.9 melanoma cells, 25 μM (FIG. 3C)) is reported as 99.90%. For the same molecule, the “level of hypomethylation of desmoplakin promoter (in words)” value ([2]; C8161.9 melanoma tumor cells) was “near complete”, the “percent DNA methylation of 23 gene promoters” value [3] was “decreased the percent of DNA methylation in a dose response fashion” and the “cell survival / toxicity” value (A549 adenocarcinoma) was “pronounced toxicity”. The “tumor size relative to control” value [4] was 74%, the “percent DNA methylation of 23 gene promoters” value [5] was “decreased the percent of DNA methylation in a dose response fashion” and the desmoplakin protein expression (desmoplakin protein) was “upregulation; also recorded: increased”. The DNMT-1 transcription (DNMT-1) was “inhibited”.
